Tested on: Human primary T cells
Assay: IL-2 ELISA, human primary T cell, anti-CD3+CD28+ (whole cell assay)
Assay type: cell-based
Conditions: Homo sapiens, T-cell, 24 h, human primary T cells stimulated with anti-CD3 + anti-CD28, 24 hours
Method: (§1) Human primary T cells were prepared as follows. Whole blood was obtained from a healthy volunteer, mixed 1:1 with PBS, layered on to Ficoll Hypaque (Amersham Pharmacia Biotech, Piscataway, N.J., Catalog #17-1440-03) in 2:1 blood/PBS:ficoll ratio and centrifuged for 30 minutes at 4° C. at 1750 rpm. The cells at the serum:ficoll interface were recovered and washed twice with 5 volumes of PBS. These freshly isolated human peripheral blood mononuclear cells were cultured in Yssel's medium containing 40 U/mL IL2 in a flask pre-coated with 1 μg/mL αCD3 and 5 μg/mL αCD28 (Anti-Human CD3, BD Pharmingen Catalog #555336, Anti-Human CD28, Beckman Coulter Catalog #IM1376). The cells were stimulated for 3-4 days, then transferred to a fresh flask and maintained in RPMI (RPMI-1640 with L-Glutamine; Mediatech, Inc., Herndon Va., cat. #10-040-CM) with 10% FBS and 40 U/mL IL-2. The primary T-cells were then washed twice with PBS to remove the IL-2.
Human primary T cells (100,000 cells per well) were pre-incubated with or without test compound in Yssel's medium for 1 hr at 37° C. Cells were then stimulated by transferring them to round-bottom 96-well plates pre-coated with 1 μg/ml μCD3 and 5 μg/ml μCD28. For counter assay, cells were instead stimulated by adding 8× stock solutions of PMA and ionomycin in Yssels (for final concentrations of 0.5 ng/ml PMA and 0.1 μM ionomycin, both from Calbiochem). Cells were incubated at 37° C. for 24 hours before 100 μL supernatants were harvested for quantification of IL-2 by ELISA using Human IL-2 Duoset ELISA Kit from R and D Systems, Cat. #DY202E.
as §1, with “Human primary T cell isolation and culture: Human primary” for “Human primary”, “for 30 min at 4°” for “for 30 minutes at 4°”, “at the serum: ficoll interface were” for “at the serum:ficoll interface were”
Primary T cell stimulation and IL2 ELISA: Human primary T cells (100,000 cells per well) were pre-incubated with or without test compound in Yssel's medium for 1 hr at 37° C. Cells were then stimulated by transferring them to round-bottom 96-well plates pre-coated with 1 μg/ml αCD3 and 5 μg/ml αCD28. For counter assay, cells were instead stimulated by adding 8× stock solutions of PMA and ionomycin in Yssels (for final concentrations of 0.5 ng/ml PMA and 0.1 μM ionomycin, both from Calbiochem). Cells were incubated at 37° C. for 24 hours before 100 μL supernatants were harvested for quantification of IL-2 by ELISA using Human IL-2 Duoset ELISA Kit from R and D Systems, Cat. #DY202E.

Compound | IC50 [nM]
CC1(C)CC(Nc2nc(Nc3ccc(OCCn4ccnn4)c(OC(F)F)c3)ncc2F)CC(C)(C)N1 [Compound I-24, N2-(4-(2-(1H-1,2,3-triazol-1-yl)ethoxy)-3-(difluoromethoxy)phenyl)-5-fluoro-N4-(2,2,6,6-tetramethylpiperidin-4-yl)pyrimidine-2,4-diamine] | 500 to 1000
CC1(C)CC(Nc2nc(Nc3ccc(OCCn4cncn4)c(OC(F)F)c3)ncc2F)CC(C)(C)N1 [Compound I-25, N2-(4-(2-(1H-1,2,4-triazol-1-yl)ethoxy)-3-(difluoromethoxy)phenyl)-5-fluoro-N4-(2,2,6,6-tetramethylpiperidin-4-yl)pyrimidine-2,4-diamine] | > 1000
CN1C(C)(C)CC(Nc2nc(Nc3ccc(OCCn4ccnn4)c(OC(F)F)c3)ncc2F)CC1(C)C [Compound I-26, N2-(4-(2-(1H-1,2,3-triazol-1-yl)ethoxy)-3-(difluoromethoxy)phenyl)-5-fluoro-N4-(1,2,2,6,6-pentamethylpiperidin-4-yl)pyrimidine-2,4-diamine] | 250 to 500
CN1C(C)(C)CC(Nc2nc(Nc3ccc(OCCn4cncn4)c(OC(F)F)c3)ncc2F)CC1(C)C [Compound I-27, N2-(4-(2-(1H-1,2,4-triazol-1-yl)ethoxy)-3-(difluoromethoxy)phenyl)-5-fluoro-N4-(1,2,2,6,6-pentamethylpiperidin-4-yl)pyrimidine-2,4-diamine] | < 250
CC1(C)CC(Nc2nc(Nc3cc(OCCn4cncn4)cc(C(F)(F)F)c3)ncc2F)CC(C)(C)N1 [Compound I-28, N2-(3-(2-(1H-1,2,4-triazol-1-yl)ethoxy)-5-(trifluoromethyl)phenyl)-5-fluoro-N4-(2,2,6,6-tetramethylpiperidin-4-yl)pyrimidine-2,4-diamine] | 500 to 1000
CN1C(C)(C)CC(Nc2nc(Nc3cc(OCCn4cncn4)cc(C(F)(F)F)c3)ncc2F)CC1(C)C [Compound I-29, N2-(3-(2-(1H-1,2,4-triazol-1-yl)ethoxy)-5-(trifluoromethyl)phenyl)-5-fluoro-N4-(1,2,2,6,6-pentamethylpiperidin-4-yl)pyrimidine-2,4-diamine] | 500 to 1000
CC1(C)CC(Nc2nc(Nc3ccc(OCCN4CCCC4=O)c(OC(F)F)c3)ncc2F)CC(C)(C)N1 [Compound I-30, 1-(2-(4-(4-(2,2,6,6-tetramethylpiperidin-4-ylamino)-5-fluoropyrimidin-2-ylamino)-2-(difluoromethoxy)phenoxy)ethyl)pyrrolidin-2-one] | 500 to 1000
CN1C(C)(C)CC(Nc2nc(Nc3ccc(OCCN4CCCC4=O)c(OC(F)F)c3)ncc2F)CC1(C)C [Compound I-31, 1-(2-(4-(4-(1,2,2,6,6-pentamethylpiperidin-4-ylamino)-5-fluoropyrimidin-2-ylamino)-2-(difluoromethoxy)phenoxy)ethyl)pyrrolidin-2-one] | < 250
CC1(C)CC(Nc2nc(Nc3cc(OCCn4ccnn4)cc(C(F)(F)F)c3)ncc2F)CC(C)(C)N1 [Compound I-32, N2-(3-(2-(1H-1,2,3-triazol-1-yl)ethoxy)-5-(trifluoromethyl)phenyl)-5-fluoro-N4-(2,2,6,6-tetramethylpiperidin-4-yl)pyrimidine-2,4-diamine] | 500 to 1000
CN1C(C)(C)CC(Nc2nc(Nc3cc(OCCn4ccnn4)cc(C(F)(F)F)c3)ncc2F)CC1(C)C [Compound I-33, N2-(3-(2-(1H-1,2,3-triazol-1-yl)ethoxy)-5-(trifluoromethyl)phenyl)-5-fluoro-N4-(1,2,2,6,6-pentamethylpiperidin-4-yl)pyrimidine-2,4-diamine] | 250 to 500
CC1(C)CC(Nc2nc(Nc3ccc(OCCn4ccnn4)c(OC(F)F)c3)ncc2C#N)CC(C)(C)N1 [Compound I-34, 4-(2,2,6,6-tetramethylpiperidin-4-ylamino)-2-(4-(2-(1H-1,2,3-triazol-1-yl)ethoxy)-3-(difluoromethoxy)phenylamino)pyrimidine-5-carbonitrile] | 500 to 1000
CC1(C)CC(Nc2nc(Nc3cc(F)cc(OCCCn4cccc4)c3)ncc2F)CC(C)(C)N1 [Compound I-35, N2-(3-(3-(1H-pyrrol-1-yl)propoxy)-5-fluorophenyl)-5-fluoro-N4-(2,2,6,6-tetramethylpiperidin-4-yl)pyrimidine-2,4-diamine] | 500 to 1000

Continued, values first:

IC50 [nM] | Compound
500 to 1000 | CN1C(C)(C)CC(Nc2nc(Nc3cc(F)cc(OCCCn4cccc4)c3)ncc2F)CC1(C)C [Compound I-36, N2-(3-(3-(1H-pyrrol-1-yl)propoxy)-5-fluorophenyl)-5-fluoro-N4-(1,2,2,6,6-pentamethylpiperidin-4-yl)pyrimidine-2,4-diamine]
> 1000 | CC1(C)CC(Nc2nc(Nc3cc(F)cc(OCCN4CCCC4=O)c3)ncc2F)CC(C)(C)N1 [Compound I-37, 1-(2-(3-(4-(2,2,6,6-tetramethylpiperidin-4-ylamino)-5-fluoropyrimidin-2-ylamino)-5-fluorophenoxy)ethyl)pyrrolidin-2-one]
500 to 1000 | CN1C(C)(C)CC(Nc2nc(Nc3cc(F)cc(OCCN4CCCC4=O)c3)ncc2F)CC1(C)C [Compound I-38, 1-(2-(3-(4-(1,2,2,6,6-pentamethylpiperidin-4-ylamino)-5-fluoropyrimidin-2-ylamino)-5-fluorophenoxy)ethyl)pyrrolidin-2-one]
> 1000 | CC1(C)CC(Nc2nc(Nc3cc(F)cc(OCCn4cncn4)c3)ncc2F)CC(C)(C)N1 [Compound I-39, N2-(3-(2-(1H-1,2,4-triazol-1-yl)ethoxy)-5-fluorophenyl)-5-fluoro-N4-(2,2,6,6-tetramethylpiperidin-4-yl)pyrimidine-2,4-diamine]
500 to 1000 | CN1C(C)(C)CC(Nc2nc(Nc3cc(F)cc(OCCn4cncn4)c3)ncc2F)CC1(C)C [Compound I-40, N2-(3-(2-(1H-1,2,4-triazol-1-yl)ethoxy)-5-fluorophenyl)-5-fluoro-N4-(1,2,2,6,6-pentamethylpiperidin-4-yl)pyrimidine-2,4-diamine]
< 250 | CN1C(C)(C)CC(Nc2nc(Nc3ccc(OCCCn4cccc4)c(OC(F)F)c3)ncc2F)CC1(C)C [Compound I-41, N2-(4-(3-(1H-pyrrol-1-yl)propoxy)-3-(difluoromethoxy)phenyl)-5-fluoro-N4-(1,2,2,6,6-pentamethylpiperidin-4-yl)pyrimidine-2,4-diamine]
< 250 | CC1(C)CC(Nc2nc(Nc3ccc(OCCCn4cccc4)c(OC(F)F)c3)ncc2F)CC(C)(C)N1 [Compound I-42, N2-(4-(3-(1H-pyrrol-1-yl)propoxy)-3-(difluoromethoxy)phenyl)-5-fluoro-N4-(2,2,6,6-tetramethylpiperidin-4-yl)pyrimidine-2,4-diamine]
> 1000 | CN1C(C)(C)CC(Nc2nc(Nc3ccc(Oc4ccncc4)c(OC(F)F)c3)ncc2F)CC1(C)C [Compound I-43, N2-(3-(difluoromethoxy)-4-(pyridin-4-yloxy)phenyl)-5-fluoro-N4-(1,2,2,6,6-pentamethylpiperidin-4-yl)pyrimidine-2,4-diamine]
250 to 500 | CN1C(C)(C)CC(Nc2nc(Nc3ccc(Oc4cccnc4)c(OC(F)F)c3)ncc2F)CC1(C)C [Compound I-44, N2-(3-(difluoromethoxy)-4-(pyridin-3-yloxy)phenyl)-5-fluoro-N4-(1,2,2,6,6-pentamethylpiperidin-4-yl)pyrimidine-2,4-diamine]

Source: US9149475B2, “Protein kinase C inhibitors and uses thereof” (Rigel Pharmaceuticals, Inc., priority 2009, dated 2015)
